Data: paper PMC10111423, “Antimalarial Imidazopyridines Incorporating an Intramolecular Hydrogen Bonding Motif: Medicinal Chemistry and Mechanistic Studies” (ACS Infectious Diseases, 2023)

What was measured:
[1] = In vitro cytotoxicity MTT assay; assay type: cell-based, Chinese hamster; settings: Chinese hamster, Chinese hamster ovarian (CHO) cells; MTT assay
Description: (§1) In vitro cytotoxicity was performed on the Chinese Hamster Ovarian cell line by measuring cellular growth and survival calorimetrically through the MTT assay.[29],[30] The formation of tetrazolium salt was used as a measure of chemosensitivity and growth. (Details of this assay is described in the Supporting Information.) page 19: et al, 1993). The test samples were prepared to a 10 mmol/L stock solution in 100% DMSO. Samples were tested as a suspension if not completely dissolved. Further dilutions to the desired starting concentration were freshly prepared in growth media on each occasion of the experiment. The standard antimalarial drugs chloroquine (CQ) and artesunate (Arts) were used as the reference drug in all experiments. A full dose-response was performed for all compounds […] value). Test samples were tested at a starting concentration of 6mmol/L, which was then serially diluted 2-fold in growth medium to generate the tested concentration range. The same dilution technique was used for all samples. CQ and Arts were tested from a starting concentration of 1μg/mL. The highest concentration of solvent to which the parasites were exposed was <0.1% and has no measurable effect on the parasite viability (data not shown). The assay plate was incubated at 37 °C for 72h in a sealed gas chamber under 3% O2 and 4% CO2 with the balance being N2. After 72h, the wells in the assay plate were gently resuspended, and 15μL from each well was transferred to a duplicate plate containing 100μL of Malstat reagent and 25μL of nitroblue tetrazolium solution in each well. Plates were left to develop for 20 minutes in the dark and then absorbance of each well was quantified using a spectrophotometer at 620nm wavelength. The remaining population of parasites at each concentration of the test compound was determined by comparing the absorbance of each well to the absorbance of a well containing the drug-free control. Survival was plotted against concentration and the IC50 values were obtained using a non-linear dose-response curve fitting analysis via the Dotmatics software platform.2 In vitro Cytotoxicity Assay In vitro cytotoxicity was performed on the Chinese Hamster Ovarian cell line by measuring […] diphenyltetrazolium bromide (MTT) assay.3,4 The formation of tetrazolium salt was used as a measure of chemosensitivity and growth. 2 mg/mL stock solutions of the test compounds were prepared in DMSO and stored at -20 °C until required. The stock solution was subsequently diluted with the assay medium to make up an initial concentration of 100 μg/mL. The initial 100 μg/mL solution is serially diluted 10- S19 page 20: fold to attain six assay concentrations of 100-0.001 μg/mL. […] was used as the reference compound in this assay. The highest concentration of DMSO, which was used as the negative control, had no measurable effect on cell viability. After 44 hours of exposure of the cells to the test compounds, a solution of MTT was added. This was followed by an additional 4 hours of incubation at 37 °C. The assay plates were centrifuged, medium removed, and DMSO was added to the crystals. The amount of formazan was ascertained by measuring the absorbance at 540 nm. GraphPad Prism software was then used to generate IC50 values through a non-linear dose-response curve analysis. β-Hematin Inhibition Assay 20 mM stock solutions of controls and test compounds were made in DMSO. A solution […] was added to every well in columns 1-11 of a 96-well plate. 140 μL of water and 40 μL of 305.5 μM NP-40 were added to column 12 to mediate the formation of beta-hematin. 20 μL of test compounds (20 mM) were added to column 12 and 100 μL of this solution serially diluted to column 2, leaving column 1 blank (0 μM of test compound). 178.8 μL aliquot of hematin stock was suspended in 20 ml of a 1 M acetate buffer at pH 4.9. 100 μL of this hematin suspension was then added into each well, and the plates were incubated for ±5 hrs at 37°C. […]

[2] = system: Chinese hamster ovarian (CHO) cell line; assay: In vitro cytotoxicity MTT assay; assay type: cell-based; settings: CHO vs PfNF54
Description: as §1

In the case of `CCN(CCNc1cc2[nH]c(C3(C)CC3)nc2cn1)Cc1ccc(Cl)cc1O` [Compound 6, 5-Chloro-2-((ethyl(2-((2-(1-methylcyclopropyl)-1H-imidazo[4,5-c]pyridin-6-yl)amino)ethyl)amino)methyl)phenol], the IC50 at 44 h [1] is reported as greater than 50 µM and the “SI (selectivity index) = IC50 CHO/IC50 PfNF54” value [2] is reported as greater than 102.04.

With `CCN(CCNc1cc2[nH]c(C3CC3)nc2cn1)Cc1ccc(Cl)cc1O` [Compound 5, 5-Chloro-2-(((2-((2-cyclopropyl-1H-imidazo[4,5-c]pyridin-6-yl)amino)ethyl)(ethyl)amino)methyl)phenol] the IC50 at 44 h [1] was 46.4 µM and the “SI (selectivity index) = IC50 CHO/IC50 PfNF54” value [2] was 119.08.

For `CCN(CCNc1cc2[nH]c(-c3cccc(C(F)(F)F)c3)nc2cn1)Cc1ccc(Cl)cc1O` [Compound 14, 5-Chloro-2-((ethyl(2-((2-(3-(trifluoromethyl)phenyl)-1H-imidazo[4,5-c]pyridin-6-yl)amino)ethyl)amino)methyl)phenol], the IC50 at 44 h [1] was 37.3 µM and the “SI (selectivity index) = IC50 CHO/IC50 PfNF54” value [2] was 466.25.

For `CCN(CCNc1cc2[nH]c(C3CCCC3)nc2cn1)Cc1ccc(Cl)cc1O` [Compound 1, 5-Chloro-2-(((2-((2-cyclopentyl-1H-imidazo[4,5-c]pyridin-6-yl)amino)ethyl)(ethyl)amino)methyl)phenol], the IC50 at 44 h [1] was 27.1 µM and the “SI (selectivity index) = IC50 CHO/IC50 PfNF54” value [2] was 79.76.

In the case of `CCN(CCNc1cc2[nH]c(-c3ccc(C(F)(F)F)nc3)nc2cn1)Cc1ccc(Cl)cc1O` [Compound 19, 5-Chloro-2-((ethyl(2-((2-(6-(trifluoromethyl)pyridin-3-yl)-1H-imidazo[4,5-c]pyridin-6-yl)amino)ethyl)amino)methyl)phenol], the IC50 at 44 h [1] is reported as greater than 50 µM and the “SI (selectivity index) = IC50 CHO/IC50 PfNF54” value [2] is reported as greater than 131.58.
